Patent US20120041185A1, “dTDP-BETA-D-FUCOFURANOSE, ITS PREPARATION METHOD AND USE” (TIANJIN BIOCHIP TECHNOLOGY CORPORATION, priority 2007, published 2012)

Key:
[1] = biological target: T1, Fcf2 (recombinant dTDP-D-Glcfucofuranose mutase) (Escherichia coli, UniProt Q6E7F1); assay: Divalent cation requirements of Fcf2 (effects of cations on enzyme activity); type: biochemical, E. coli O52; conditions: for Transformation rate (%): in the presence of 5 mM divalent ion, 9.5 without ion
T1 construct: The entire ORF encodes a protein composed of 377 amino acids; His6 (N); made in house; host or cells: E. coli BL21
T1 sequence (Q6E7F1 whole entry): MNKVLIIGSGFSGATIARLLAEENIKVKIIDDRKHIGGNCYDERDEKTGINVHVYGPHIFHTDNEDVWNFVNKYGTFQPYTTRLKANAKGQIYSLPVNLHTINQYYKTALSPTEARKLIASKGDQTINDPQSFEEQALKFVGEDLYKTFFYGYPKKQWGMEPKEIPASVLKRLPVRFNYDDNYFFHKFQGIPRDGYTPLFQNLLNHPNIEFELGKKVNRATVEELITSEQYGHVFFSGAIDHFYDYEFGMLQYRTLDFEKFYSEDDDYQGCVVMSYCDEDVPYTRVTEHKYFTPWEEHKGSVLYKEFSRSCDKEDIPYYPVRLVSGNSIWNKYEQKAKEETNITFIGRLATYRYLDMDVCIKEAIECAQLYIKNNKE
Protocol: 25 μl reactions in 0.5 ml centrifugal tube contain 2 mM dTDP-D-fucose, 50 mM Tris-HCl buffer (pH 7.4) 5 mM divalent ion chloride and 3.9 μM recombinant dTDP-D-Glcfucofuranose mutase protein purified in example 2. The reactions are proceeded at certain temperature for 3 hours. Then add chloroform of equal volume to extract protein. The aqueous phase is detected by Beckman Coulter P/ACE MDQ capillary electrophoresis.

[2] = test system: Fcf1 (recombinant dTDP-D-GIcO reductase); assay: Divalent cation requirements of Fcf1 (effects of cations on enzyme activity); type: biochemical, E. coli O52; conditions: for Transformation rate (%): in the presence of 5 mM divalent ion chloride, 100 without ion; for influence on conversion ratio / inhibition to enzyme activity: 5 mM divalent ion chloride
Protocol: 20 μl reactions in 0.5 ml centrifugal tube contain 2 mM dTDP-D-Glco, 3 mM NADPH, 50 mM Tris-HCl buffer (pH7.4), 5 mM divalent ion chloride and 0.25 μM recombinant dTDP-D-GIcO reductase protein purified in example 2. The reactions are proceeded at certain temperatures for 2 hours. Then add chloroform of equal volume to extract protein. The aqueous phase is detected by Beckman Coulter P/ACE MDQ capillary electrophoresis.

Structure (SMILES) | Transformation rate (%) [1] [%] | Transformation rate (%) [2] [%] | influence on conversion ratio / inhibition to enzyme activity [2] | inhibition to enzyme activity ([1]; 5 mM divalent ion)
[Cl][Fe][Cl] [Fe^2+, FeCl2] | 9.1 | 90.5 | – | –
[Cl-].[Cl-].[Mg+2] [Mg^2+, MgCl2] | 9.7 | 100 | no influence | –
[Cl-].[Cl-].[Co+2] [Co^2+, CoCl2] | 8.8 | 89.2 | – | –
[Cl][Cu][Cl] [Cu^2+, CuCl2] | 0 | 11.8 | highest inhibition | obvious inhibition
[Ca+2].[Cl-].[Cl-] [Ca^2+, CaCl2] | 9.6 | 98.1 | – | –
[Cl][Mn][Cl] [Mn^2+, MnCl2] | 5.4 | 100 | no influence | –
